This passage reports inhibition results from US8106055B2, “Substituted amide compounds” (Gruenenthal GmbH, priority 2007, dated 2012).

For the first assay, the target named is T1, bradykinin 1 receptor (B1R) of the rat (Rattus norvegicus, UniProt P97583).
T1 construct: expressed in transfected cells; host or cells: CHO K1 cells
T1 sequence (P97583 1-337): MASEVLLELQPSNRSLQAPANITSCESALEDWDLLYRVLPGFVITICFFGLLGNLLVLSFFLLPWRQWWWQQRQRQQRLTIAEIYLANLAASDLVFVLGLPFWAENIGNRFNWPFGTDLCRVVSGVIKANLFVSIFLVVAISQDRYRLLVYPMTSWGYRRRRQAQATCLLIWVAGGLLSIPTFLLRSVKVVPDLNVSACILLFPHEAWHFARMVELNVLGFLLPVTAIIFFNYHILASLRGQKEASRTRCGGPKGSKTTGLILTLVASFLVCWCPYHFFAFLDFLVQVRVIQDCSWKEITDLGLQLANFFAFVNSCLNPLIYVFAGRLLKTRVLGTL
The assay can be described thus: Functional investigation on the rat bradykinin 1 receptor (B1R), Ca2+ FLIPR assay in CHO K1 rB1R cells. Format: cell-based. As to conditions: CHO-K1, B1R antagonism rat; test substance 10 μM; Ca2+ FLIPR, CHO K1 rB1R cells; read-out: B1R Ant. r [10 μM] % Inhibition. The method in brief:
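Cells were dye-loaded with Fluo-4 plus probenecid, then test substances added and Ca2+ influx compared with agonist control for % activation. After 10-20 min, EC80 agonist (Lys-Des-Arg9-bradykinin human; Des-Arg9-bradykinin rat) was applied; suppression gave % inhibition and IC50 values.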
As for `COc1cc(C)c(S(=O)(=O)N2CCN(CCOCC(=O)NCCC3CCC(C(c4cccc(F)c4)N(C)C)CC3)CC2)c(C)c1C` (centres unmarked) [Example 200, N-(2-(4-((dimethylamino)(3-fluorophenyl)methyl)cyclohexyl)ethyl)-2-(2-(4-(4-methoxy-2,3,6-trimethylphenylsulfonyl)piperazin-1-yl)ethoxy)acetamide], the inhibition – broadly, the drop in the measured response relative to a control, in per cent – at 10 µM is -3%.
The same measure, in the same setting: next, `COc1ccc(S(=O)(=O)N2CCCCC2COCC(=O)NCC2CCC(C(c3cccc(F)c3)N(C)C)CC2)c(OC)c1` (centres unmarked) [Example 151, 2-((1-(2,4-dimethoxyphenylsulfonyl)piperidin-2-yl)methoxy)-N-((4-((dimethylamino)(3-fluorophenyl)methyl)cyclohexyl)methyl)acetamide]: 23%; `COc1cc(C)c(S(=O)(=O)N(C)CCOCC(=O)NCC2CCC(C(c3ccccc3)N(C)C)CC2)c(C)c1` (centres unmarked) [Example 137, N-((4-((dimethylamino)(phenyl)methyl)cyclohexyl)methyl)-2-(2-(4-methoxy-N,2,6-trimethylphenylsulfonamido)ethoxy)acetamide]: 100%; `CN(C)C(c1cccs1)C1CCC(CCNC(=O)COCCN(C)S(=O)(=O)c2cccc(C(F)(F)F)c2)CC1` (centres unmarked) [Example 32, N-(2-(4-((dimethylamino)(thiophen-2-yl)methyl)cyclohexyl)ethyl)-2-(2-(N-methyl-3-(trifluoromethyl)phenylsulfonamido)ethoxy)acetamide]: 14%.
For `CN(C)C(c1cccs1)C1CCC(NC(=O)COC2CCN(S(=O)(=O)c3ccccc3)C2)CC1` (centres unmarked) [Example 194, N-(4-((dimethylamino)(thiophen-2-yl)methyl)cyclohexyl)-2-(1-(phenylsulfonyl)pyrrolidin-3-yloxy)acetamide], the inhibition at 10 µM turned out to be 14%.
On the same count and under the same terms, next, `CN(C)C(c1cccc(F)c1)C1CCC(CCNC(=O)COCC2CCCCN2S(=O)(=O)c2ccc(Cl)c(Cl)c2)CC1` (centres unmarked) [Example 147, 2-((1-(3,4-dichlorophenylsulfonyl)piperidin-2-yl)methoxy)-N-(2-(4-((dimethylamino)(3-fluorophenyl)methyl)cyclohexyl)ethyl)acetamide]: 27%; `CN(C)C(c1cccs1)C1CCC(NC(=O)COCCN(Cc2ccccc2)S(=O)(=O)c2ccccc2)CC1` (centres unmarked) [Example 161, 2-(2-(N-benzylphenylsulfonamido)ethoxy)-N-(4-((dimethylamino)(thiophen-2-yl)methyl)cyclohexyl)acetamide]: 3%.
As for `COc1ccc(S(=O)(=O)N2CCCC2COCC(=O)NC2CCC(C(c3ccccc3)N(C)C)CC2)cc1` (centres unmarked) [Example 182, N-(4-((dimethylamino)(phenyl)methyl)cyclohexyl)-2-((1-(4-methoxyphenylsulfonyl)pyrrolidin-2-yl)methoxy)acetamide], the inhibition at 10 µM came to 25%.
For the compound `CN(C)C(c1cccs1)C1CCC(CCNC(=O)COCCN(C)S(=O)(=O)c2ccc(Cl)cc2Cl)CC1` (centres unmarked) [Example 9, 2-(2-(2,4-dichloro-N-methylphenylsulfonamido)ethoxy)-N-(2-(4-((dimethylamino) (thiophen-2-yl)methyl)cyclohexyl)ethyl)acetamide], the inhibition at 10 µM came out at 43%.
As for `COc1ccc(S(=O)(=O)N2CCC(OCC(=O)NCC3CCC(C(c4ccccc4)N(C)C)CC3)C2)cc1OC` (centres unmarked) [Example 22, 2-(1-(3,4-dimethoxyphenylsulfonyl)pyrrolidin-3-yloxy)-N-((4-((dimethylamino)(phenyl)methyl)cyclohexyl)methyl)acetamide], the inhibition at 10 µM turned out to be 26%.
On the same count and under the same terms, next, `Cc1cc(C)c(S(=O)(=O)N2CCC(OCC(=O)NCC3CCC(C(c4cccc(F)c4)N(C)C)CC3)C2)c(C)c1` (centres unmarked) [Example 141, N-((4-((dimethylamino)(3-fluorophenyl)methyl)cyclohexyl)methyl)-2-(1-(mesitylsulfonyl)pyrrolidin-3-yloxy)acetamide]: 26%; `CN(C)C(c1cccs1)C1CCC(NC(=O)COC2CCN(S(=O)(=O)c3cccc(C(F)(F)F)c3)C2)CC1` (centres unmarked) [Example 11, N-(4-((dimethylamino)(thiophen-2-yl)methyl)cyclohexyl)-2-(1-(3-(trifluoromethyl)phenylsulfonyl)pyrrolidin-3-yloxy)acetamide]: 36%.
The same measure, in the same setting: in the case of `CN(C)C(c1ccccc1)C1CCC(CNC(=O)COCC2CCCCN2S(=O)(=O)c2ccc(Cl)c(Cl)c2)CC1` (centres unmarked) [Example 17, 2-((1-(3,4-dichlorophenylsulfonyl)piperidin-2-yl)methoxy)-N-((4-((dimethylamino)(phenyl)methyl)cyclohexyl)methyl)acetamide] it was 22%.
On the same count and under the same terms, next, `COc1cc(C)c(S(=O)(=O)N2CCC(OCC(=O)NCC3CCC(C(c4ccccc4)N(C)C)CC3)CC2)c(C)c1C` (centres unmarked) [Example 143, N-((4-((dimethylamino)(phenyl)methyl)cyclohexyl)methyl)-2-(1-(4-methoxy-2,3,6-trimethylphenylsulfonyl)piperidin-4-yloxy)acetamide]: 19%; `COc1ccc(S(=O)(=O)N2CCCCC2COCC(=O)NCCC2CCC(C(c3cccs3)N(C)C)CC2)cc1` (centres unmarked) [Example 30, N-(2-(4-((dimethylamino)(thiophen-2-yl)methyl)cyclohexyl)ethyl)-2-((1-(4-methoxyphenylsulfonyl)piperidin-2-yl)methoxy)acetamide]: 72%; `CN(C)C(c1cccc(F)c1)C1CCC(CNC(=O)COCCN(C)S(=O)(=O)c2c(Cl)cc(Cl)cc2Cl)CC1` (centres unmarked) [Example 188, N-((4-((dimethylamino)(3-fluorophenyl)methyl)cyclohexyl)methyl)-2-(2-(2,4,6-trichloro-N-methylphenylsulfonamido)ethoxy)acetamide]: 13%.
Consider `COc1ccc(S(=O)(=O)N(C)CCOCC(=O)NCC2CCC(C(c3cccs3)N(C)C)CC2)cc1` (centres unmarked) [Example 142, N-((4-((dimethylamino)(thiophen-2-yl)methyl)cyclohexyl)methyl)-2-(2-(4-methoxy-N-methylphenylsulfonamido)ethoxy)acetamide], for which the inhibition at 10 µM stood at 41%.
Same read-out and setting: next, `COc1ccc(S(=O)(=O)N2Cc3ccccc3CC2COCC(=O)NCC2CCC(C(c3ccccc3)N(C)C)CC2)cc1` (centres unmarked) [Example 19, N-((4-((dimethylamino)(phenyl)methyl)cyclohexyl)methyl)-2-((2-(4-methoxyphenylsulfonyl)-1,2,3,4-tetrahydroisoquinolin-3-yl)methoxy)acetamide]: 4%; `COc1cc(C)c(S(=O)(=O)N2CCC(OCC(=O)NCCC3CCC(C(c4cccs4)N(C)C)CC3)C2)c(C)c1` (centres unmarked) [Example 199, N-(2-(4-((dimethylamino)(thiophen-2-yl)methyl)cyclohexyl)ethyl)-2-(1-(4-methoxy-2,6-dimethylphenylsulfonyl)pyrrolidin-3-yloxy)acetamide]: 100%.
With `COc1cc(C)c(S(=O)(=O)N2CCC(OCC(=O)NC3CCC(C(c4cccc(F)c4)N(C)C)CC3)C2)c(C)c1C` (centres unmarked) [Example 189, N-(4-((dimethylamino)(3-fluorophenyl)methyl)cyclohexyl)-2-(1-(4-methoxy-2,3,6-trimethylphenylsulfonyl)pyrrolidin-3-yloxy)acetamide], the inhibition at 10 µM stood at 16%.
Still for that read-out and setting: next, `COc1ccc(S(=O)(=O)N2CCCCC2COCC(=O)NCC2CCC(C(c3ccccc3)N(C)C)CC2)cc1OC` (centres unmarked) [Example 150, 2-((1-(3,4-Dimethoxyphenylsulfonyl)piperidin-2-yl)methoxy)-N-((4-((dimethylamino)(phenyl)methyl)cyclohexyl)methyl)acetamide]: 10%.
The same measure, in the same setting: in the case of `COc1cc(C)c(S(=O)(=O)N(CCOCC(=O)NCCC2CCC(C(c3cccs3)N(C)C)CC2)Cc2ccccc2)c(C)c1` (centres unmarked) [Example 149, 2-(2-(N-benzyl-4-methoxy-2,6-dimethylphenylsulfonamido)ethoxy)-N-(2-(4-((dimethylamino) (thiophen-2-yl)methyl)cyclohexyl)ethyl)acetamide] it was 10%; in that of `CCN(CCOCC(=O)NCC1CCC(C(c2cccs2)N(C)C)CC1)S(=O)(=O)c1c(C)cc(OC)c(C)c1C` (centres unmarked) [Example 16, N-((4-((dimethylamino)(thiophen-2-yl)methyl)cyclohexyl)methyl)-2-(2-(N-ethyl-4-methoxy-2,3,6-trimethylphenylsulfonamido)ethoxy)acetamide], 59%; in that of `CN(C)C(c1cccc(F)c1)C1CCC(CNC(=O)COCCN(C)S(=O)(=O)c2ccc(Cl)cc2)CC1` (centres unmarked) [Example 158, 2-(2-(4-chloro-N-methylphenylsulfonamido)ethoxy)-N-((4-((dimethylamino)(3-fluorophenyl)methyl)cyclohexyl)methyl)acetamide], 5%.
For the compound `COc1cc(C)c(S(=O)(=O)N(CCOCC(=O)NCC2CCC(C(c3ccccc3)N(C)C)CC2)Cc2ccccc2)c(C)c1` (centres unmarked) [Example 148, 2-(2-(N-benzyl-4-methoxy-2,6-dimethylphenylsulfonamido)ethoxy)-N-((4-((dimethylamino)(phenyl)methyl)cyclohexyl)methyl)acetamide], the inhibition at 10 µM turned out to be 46%.

The assay is the same for the next values; noted with them: CHO-K1, read-out: B1R Ant. r [10 μM] % Inhibition.
In the case of `CN(C)C(c1ccccc1)C1CCC(CNC(=O)COC2CCN(S(=O)(=O)c3ccccc3)C2)CC1` (centres unmarked) [Example 195, N-((4-((dimethylamino)(phenyl)methyl)cyclohexyl)methyl)-2-(1-(phenylsulfonyl)pyrrolidin-3-yloxy)acetamide], the inhibition at 10 µM is 24%.
